Data on two substances can be found in patent EP0309566B1, “STLV-III-RELATED POLYPEPTIDES, DIAGNOSTIC SYSTEMS AND ASSAY METHODS” (JOHNSON AND JOHNSON, priority 1987, dated 1994).

Assay type in all cases: binding, human
Assay [1] has as its system antibodies to HIV-1. As to the kind of experiment: ELISA with peptides (III) and (IV), AIDS/ARC patient sera (Procedure 1). The procedure:
(§1) • (1) coat ELISA plate with peptide - 1ug/50ul/well in 0.1M NaHCO₃, pH 9; • (2) let plates dry overnight uncovered at 37°C; then wash with PBS; • (3) block plates with 300ul/well of blocking buffer (5% NCS-PBS) for 2 hrs. at 37°C; • (4) shake out blocking buffer and drain well; • (5) add 50ul/well test antiserum (first antibody) for 30 to 120 minutes at 37°C. (If the antiserum is to be diluted, use T-wash.) Dilutions of 1:2 to 1:100 have been used; • (6) shake out test antisera and wash plate six times with PBS-Tween20; • (7) add 100ul/well of labeled specific binding agent in the form of a enzyme-labeled second antibody diluted 1:4000 with T-wash. Maintain 30 to 120 minutes at 37°C; • (8) shake out any unreacted second antibody and wash plate six times with PBS-Tween20; • (9) add 100ul/well OPD substrate (or 5ul ABTS solution) for 20 minutes at RT; • (10) add 50ul/well of 4N H₂SO₄ to stop OPD reaction (or 100ul/well of 1% SDS for ABTS reaction); • (11) read plate on an MR 500 Microplate ELISA plate reader. (490nm for OPD or 405 nm for ABTS).
Additional AIDS/ARC patient sera were assayed with ELISA assays employing the two highly reactive peptides of formulas (III) and (IV) (Example IV-Procedure 1).

Assay [2] relates to antibodies to HIV-1. The assay can be described thus: Competition ELISA, admixed formula (III) and (IV) peptides as solid phase antigen (Example 4A). The procedure: as §1
Further evidence that more than one epitope is present in formula (III) and (IV) peptides can be deduced from absorbance values obtained from competition studies, the results of an example of which are shown in Table 11. In this study, admixed formula (III) and (IV) peptides were applied to a microtiter plate as the immobilized, solid phase antigen and an ELISA assay (Example 4A) was performed under five different conditions: without competition, or competition with excess formula (III) peptide, formula (IV) peptide, an admixture of both peptides [(III)+(IV)], or with a heterologous peptide. The competition was performed by adding the appropriate peptide(s) to the diluted serum just before adding the serum sample to the microtiter well.

Assay [3] relates to antibodies to HIV-1. The assay can be described thus: Competition ELISA, formula (I) peptide as solid phase antigen (Example 4A). How it is done: as §1
In general terms: An ELISA detects its analyte on a solid surface through an enzyme-linked reagent.

Regarding IWGCSGKLICTTAVPWNAS [peptide (III)], the absorbance values is recorded as 0.403 in the assay on antibodies to HIV-1 [1] (serum sample 0509 (group B)); 1.756 in the assay with antibodies to HIV-1 [1] (serum sample 0649 (group A)); 0.111 in the assay with antibodies to HIV-1 [1] (serum sample 0653 (group B)); 0.301 in the assay on antibodies to HIV-1 [1] (serum sample 0662 (group B)); 0.503 with antibodies to HIV-1 [1] (serum sample 3362 (group A)); more than 2.00 with antibodies to HIV-1 [1] (serum sample 3411 (group C)). Further, the absorbance values was more than 2.00 with antibodies to HIV-1 [1] (serum sample 3412 (group A)); more than 2.00 in the assay on antibodies to HIV-1 [1] (serum sample 3413 (group C)); 1.453 in the assay on antibodies to HIV-1 [1] (serum sample 3414 (group C)); 1.914 with antibodies to HIV-1 [1] (serum sample 3416 (group C)); 1.670 with antibodies to HIV-1 [1] (serum sample 3456 (group C)); 0.428 in the assay with antibodies to HIV-1 [1] (serum sample 3555 (group B)). For the same substance, the absorbance values in the assay on antibodies to HIV-1 [1] (serum sample 3575 (group B)) was 0.350; with antibodies to HIV-1 [1] (serum sample 3666 (group C)), more than 2.00; in the assay with antibodies to HIV-1 [1] (serum sample 3693 (group A)), 0.559; in the assay on antibodies to HIV-1 [1] (serum sample 3722 (group A)), 0.620; in the assay on antibodies to HIV-1 [1] (serum sample 3744 (group B)), 0.311; in the assay with antibodies to HIV-1 [1] (serum sample 3790 (group B)) it was 0.224. Besides, the “absorbance with competing peptide” value in the assay on antibodies to HIV-1 [2] (sample 3412, unblocked 1.450) was 0.113; in the assay with antibodies to HIV-1 [2] (sample 3413, unblocked >2.00), 0.381; in the assay with antibodies to HIV-1 [2] (sample 3416, unblocked >2.00), 1.811; with antibodies to HIV-1 [2] (sample 3544, unblocked 1.810), 0.876; in the assay with antibodies to HIV-1 [2] (sample 3575, unblocked 1.267), 0.982; in the assay with antibodies to HIV-1 [2] (sample 3693, unblocked 0.340), 0.103. The “absorbance with competing peptide” value in the assay with antibodies to HIV-1 [2] (sample 3790, unblocked 1.558) was found to be 1.320; in the assay with antibodies to HIV-1 [3] (sample 013, unblocked 1.177), 0.046; in the assay on antibodies to HIV-1 [3] (sample 014, unblocked 0.383), 0.067. In the assay on antibodies to HIV-1 [3] (result in words), the “competition with formula (I) peptide on the plate” value is listed as “competed very effectively”.

CSGKLIC [(I)]: the “absorbance with competing peptide” value in the assay with antibodies to HIV-1 [3] (sample 013, unblocked 1.177) stood at 0.038; in the assay with antibodies to HIV-1 [3] (sample 014, unblocked 0.383) it was 0.050.
